Patent US20060142171A1, “Novel alkaline protease” (priority 2003, published 2006)
Starred links: 1 amine or outer side, 2 acyl side, 3 side chain; linkers in the order of their positions; H or OH if unused. Non-standard residues stand in square brackets, D forms with d. Residues, ends and D or L forms follow the SMILES beside them. *: point of attachment. Sta = CC(C)C[C@H](N)[C@@H](O)CC(=O)O; pNA = O=[N+]([O-])c1ccc(N*)cc1; Suc = O=C(CCC(=O)[*:2])[*:1]; Isovaleryl = CC(C)CC(=O)*

How the values were obtained:
[1] = molecular target: T1, AL protease (Nesterenkonia aethiopica, UniProt D0VWT7); test: biochemical; assay type: biochemical, Nesterenkonia sp. AL
Experimental: (§1) Protease activity was determined using casein as substrate as described earlier [3.12]. The reaction mixture in a total volume of 2 ml was composed of 1% casein, 50 mM glycine-NaOH buffer, pH 10, and appropriately diluted enzyme. After 20 min incubation at 50° C. the reaction was terminated by adding equal volume of 10% trichloroacetic acid (TCA). After separation of the unreacted casein precipitate by centrifugation, 0.5 ml of clear supernatant was mixed with 2.5 ml of 0.5 M Na2CO3 and 0.5 ml of 1 N Folin-Ciocalteau's phenol reagent. After 30 min at 25° C., absorbance was measured at 660 nm against a reagent blank. One unit of protease activity was defined as the amount of enzyme that released 1 μg of amino acid equivalent to tyrosine per min under the standard assay conditions.
(§2) AL protease was also not inhibited by inhibitors of cysteine proteases, aspartate proteases and metal proteases (Table 5). The effect of another serine protease specific inhibitor, 3,4-dichlorocoumarin at a concentration of 100 μM on the protease activity was investigated.

[2] = tested on: AL-89 protease; test: Effect of protease inhibitors on AL-89 protease activity; assay type: biochemical, Bacillus pseudofirmus AL-89; settings: for Remaining activity (%): AL-89 protease, incubated 1 h at 30° C.
Experimental: as §1, §2

[3] = molecular target: T1, AL protease; test: Assay with synthetic peptide, pNA, AMC, NNap and ester substrates (kinetic parameters); assay type: biochemical, Nesterenkonia sp. AL; settings: for Hydrolysis of synthetic substrate by AL protease: result in words
Experimental: The AL protease activity toward a variety of commercially available synthetic peptide substrates was assayed. The incubation volume was always 1 ml in which 10 μl enzyme solution; 0.76 mg protein/ml was used unless otherwise stated. Initial reaction rates were fitted to the Michaelis-Menten equation, and kinetic parameters, kcat and Km were determined.
Fluorometric assay for Suc-L-Y-AMC, Suc-A-A-F-AMC, Suc-I-I-W-AMC, Suc-A-A-K-AMC, NA-Bz-R-AMC, Suc-L-L-V-Y-AMC, Suc-F-G-L-β-NNap, Suc-L-β-NNap (Sigma) was performed in 50 mM glycine-NaOH buffer, pH 10 at 25° C. The substrate concentration range was from 0.05 to 10 mM except for Suc-L-L-V-Y-AMC (0.1-25 μM). Fluorescence was monitored with a SPEX Fluorolog spectrometer, in a 1×1 cm quartz cuvette placed in a thermostat cuvette holder, using excitation wavelength of 345 nm, emission wavelength 442 nm slit width 5 nm for AMC substrate and excitation wavelength of 340 nm, emission wavelength of 410 and slit width 5 nm for β-NNap substrates. A standard solution of AMC and β-naphthylamine was used to convert the fluorescence values to product concentrations.
Activity with p-nitroanilide substrates was tested at 25° C. in 50 mM Tris-HCl buffer, pH 9. Following substrates were used: Bz-Tyr-pNA (Sigma), BAPNA, Suc-Phe-pNA, Suc-A-A-P-F-pNA, Suc-A-A-P-L-pNA, Suc-G-G-G-pNA, Suc-A-A-A-pNA, Suc-A-A-V-pNA (Bachem Feinchemikalien AG (Bubendorf, Switzerland), and S-benzyl-L-cysteine-4-nitroanilide (Fluka Chemie AG, Buchs, Switzerland). The release of p-nitroanilide (pNA) was measured at 410 nm. Extinction coefficient (E) of pNA was taken to be 8480 M^−1 cm^−1. Initial reaction rates were determined over a concentration range of 0.05-10 mM for most substrates, excluding Suc-A-A-P-L-pNA (0.05-20 mM), and S-benzyl-L-Cysteine-4-nitroanilide (0.05-80 mM).
Hydrolytic activity of the enzyme on the ester substrates, BAEE, BTEE, Bz-F-NE, p-nitrophenyl acetate, p-nitrophenyl butyrate and Suc-F-L-F-SBzl (Sigma) was examined spectrophotometrically at 410 nm (ε410=900 M^−1cm^−1) in 50 mM Tris-HCl buffer, pH 9 at 25° C. and 50° C. respectively. The substrates concentration range between 0.05 to 10 mM. The Initial hydrolysis of BAEE, Suc-F-L-F-SBzl was followed at 253 nm (ε253=1150 M^−1cm^−1) and BTEE at 259 nm (ε259=964 M^−1cm^−1), at which their extinction coefficients were taken in calculation.
Due to the poor aqueous solubility of some of the substrates, their stock solutions were prepared in organic solvents, and further dilution was done with the used buffer. Suc-F-G-L-β-NNap, Suc-L-L-V-Y-AMC, Suc-L-Y-AMC, Suc-A-A-F-AMC, Suc-I-I-W-AMC, Suc-A-A-K-AMC, NA-Bz-R-AMC and Bz-Tyr-pNA, Suc-F-L-F-SBzl and Bz-F-βNE were dissolved in dimethylsulfoxide (DMSO), Suc-Phe-pNA, BTEE and BAPNA in ethanol, Suc-A-A-A-pNA in N,N-dimethylformamide (DMF), and Bz-Cys-NA in acetonitrile.
In these cases the kcat/Km was calculated from velocity measurements at low substrate concentration [S]<<Km, where v=(kcat/Km)[E]0 [S].

[4] = substrate marked b (footnote not given), pNA and ester substrates, 50 mM Tris-HCl buffer, pH 9
[5] = AL protease, inhibitor 10 mM, incubated 1 h at 30° C.
[6] = substrate marked a (footnote not given), AMC substrate, 50 mM glycine-NaOH buffer, pH 10 at 25° C.

T1 sequence (D0VWT7 entry or part of it): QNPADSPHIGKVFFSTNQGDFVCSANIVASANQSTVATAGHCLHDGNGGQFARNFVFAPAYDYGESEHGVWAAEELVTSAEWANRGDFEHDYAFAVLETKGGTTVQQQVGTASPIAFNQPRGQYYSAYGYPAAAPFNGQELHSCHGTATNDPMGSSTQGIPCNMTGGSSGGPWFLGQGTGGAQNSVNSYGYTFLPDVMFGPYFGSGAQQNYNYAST

For O=C(O)c1cc[c]([Hg][Cl])cc1 [PCMBA], the “Remaining activity (%)” value ([1]; AL protease, inhibitor 5 mM, incubated 1 h at 30° C.) was 99% and the “Remaining activity (%)” value ([2]; inhibitor 5 mM) was 91%.
For CC(=O)Oc1ccc([N+](=O)[O-])cc1 [p-nitrophenyl acetate], the “Hydrolysis of synthetic substrate by AL protease” value (“Hydrolysis of synthetic substrate” for short) [3] was “unable to cleave”.
With “N-succinyl-Gly-Gly-Gly-p-nitroanilide (Suc-Gly-Gly-Gly-pNA; SMILES O=C(O)CCC(=O)NCC(=O)NCC(=O)NCC(=O)Nc1ccc([N+](=O)[O-])cc1) [Suc-G-G-G-pNA]” the “Hydrolysis of synthetic substrate” value [3] was “unable to hydrolyze”.
N=C(N)NCCCC(NC(=O)c1ccccc1)C(=O)Nc1ccc([N+](=O)[O-])cc1 (racemic) [BAPNA, Nα-benzoyl-D,L-arginine-p-nitroanilide] was tested, and the “Hydrolysis of synthetic substrate” value [3] was “did not show detectable activity”.
With “N-succinyl-Ala-Ala-Pro-Leu-p-nitroanilide (Suc-AAPL-pNA; SMILES CC(C)C[C@H](NC(=O)[C@@H]1CCCN1C(=O)[C@H](C)NC(=O)[C@H](C)NC(=O)CCC(=O)O)C(=O)Nc1ccc([N+](=O)[O-])cc1) [Suc-A-A-P-L-pNA]” the “Hydrolysis of synthetic substrate” value [3] was “remarkable hydrolyzing activity”, the Km [3, 4] was 9300 µM and the kcat [3, 4] was 6646.19 s⁻¹.
With O=C(O)CCC(=O)N[C@@H](Cc1ccccc1)C(=O)Nc1ccc([N+](=O)[O-])cc1 [Suc-Phe-pNA, N-succinyl-phenylalanine-p-nitroanilide] the “Hydrolysis of synthetic substrate” value [3] was “did not show detectable activity”.
With “N-Succinyl-Ala-Ala-Ala-p-nitroanilide [Suc-A-A-A-pNA]” the “Hydrolysis of synthetic substrate” value [3] was “unable to hydrolyze”.
“N-succinyl-Ala-Ala-Val-p-nitroanilide (Suc-Ala-Ala-Val-pNA; SMILES CC(C)[C@H](NC(=O)[C@H](C)NC(=O)[C@H](C)NC(=O)CCC(=O)O)C(=O)Nc1ccc([N+](=O)[O-])cc1) [Suc-A-A-V-pNA]” was tested, and the “Hydrolysis of synthetic substrate” value [3] was “unable to hydrolyze”.
c1cnc2c(c1)ccc1cccnc12 [1,10-Phenanthroline] was tested, and the remaining activity at 10000 µM [1, 5] was 113% and the “Remaining activity (%)” value ([2]; inhibitor 10 mM) was 75%.
For CC(C)CC(=O)N[C@H](C(=O)N[C@H](C(=O)N[C@@H](CC(C)C)[C@@H](O)CC(=O)N[C@@H](C)C(=O)N[C@@H](CC(C)C)[C@@H](O)CC(=O)O)C(C)C)C(C)C [Pepstatin] (Isovaleryl-VV[Sta]A[Sta]-OH), the remaining activity at 100 µM ([1]; AL protease, inhibitor 0.1 mM, incubated 1 h at 30° C.) was 102% and the “Remaining activity (%)” value ([2]; inhibitor 0.1 mM) was 100%.
With O=S(=O)(F)Cc1ccccc1 [PMSF, phenyl-methanesulfonyl fluoride] the “Remaining activity (%)” value ([1]; AL protease, inhibitor 1 mM, incubated 1 h at 30° C.) was 100%, the “Remaining activity (%)” value [1, 5] was 108% and the “Inhibition of AL protease activity” value ([1]; result in words, PMSF up to 10 mM, others at concentrations of Table 5) was “did not inhibit”. The “Remaining activity (%)” value ([2]; inhibitor 1 mM) was 0%, the “Remaining activity (%)” value ([2]; inhibitor 10 mM) was 0% and the “Inhibition of AL-89 protease activity” value ([2]; result in words, 1 mM) was “totally inhibited”.
For “N-succinyl-Ala-Ala-Pro-Phe-p-nitroanilide (Suc-AAPF-pNA) [Suc-A-A-P-F-pNA]”, the “Hydrolysis of synthetic substrate” value [3] was “remarkable hydrolyzing activity”, the Km [3, 4] was 2970 µM and the kcat [3, 4] was 4391.46 s⁻¹.
“N-succinyl-Leu-Leu-Val-Tyr-7-amino-4-methyl coumarin [Suc-L-L-V-Y-AMC]” was tested, and the “kcat/Km higher than that for Suc-A-A-P-F-pNA and Suc-A-A-P-L-pNA” value ([3]; AL protease) was 2.5-5 fold, the “Hydrolysis of synthetic substrate” value [3] was “remarkable hydrolyzing activity” and the Km [3, 6] was 15 µM. For the same molecule, the kcat [3, 6] was 51.68 s⁻¹.
For O=C(O)CN(CCN(CC(=O)O)CC(=O)O)CC(=O)O [EDTA, ethylenediamino tetraacetate], the “Remaining activity (%)” value [1, 5] was 99% and the “Remaining activity (%)” value ([2]; inhibitor 10 mM) was 98%.
